Blank lines part the entries; values can stand above or below the molecule they belong to.
How the values were obtained:
in vivo = conditions: mouse, iv
[1] = Organ distribution in mice by X-band ESR; conditions: for Blood (% dose) / Brain (% dose): vena caudalis, 7.5 μmol (2.5 μmol for 3-carboxy-PROXYL acetoxymethyl ester)
in vitro = in vitro ADME; conditions: carboxylesterase, 37° C., mean ± SD, n = 3, read-out: Hydrolysis Rate; for metabolised at 10 s: 10 sec., SD printed on next line: 0.43 (methyl ester), 11.9 (acetoxymethyl ester); for metabolised at 1 min: SD printed on next line: 0.34 (methyl ester), 3.4 (acetoxymethyl ester); for metabolised at 0.05 h: 3 min., 1.1 (acetoxymethyl ester); for metabolised at 0.05 h / metabolised at 5 min: SD: 0.49 (methyl ester); for metabolised at 5 min: 2.2 (acetoxymethyl ester); for metabolised at 10 min: SD printed on next line: 0.08 (methyl ester); for metabolised at 10 min / metabolised at 0.5 h: 0.0 (acetoxymethyl ester); for metabolised at 0.5 h: 30 min., SD printed on next line: 1.51 (methyl ester)
Description: (§1) Changes with time in the hydrolysis rate of 3-carboxy-PROXYL methyl ester and 3-carboxy-PROXYL acetoxymethyl ester by an esterase were examined.
(§2) 200 μl of a 10 mM test sample solution was mixed with 800 μl of 5 micro units of an esterase (carboxy esterase, carboxylic ester hydrolase; EC 3.1.1.1 manufactured by Sigma, catalogue No. E3128). The mixture was incubated at 37° C. for 10 seconds, 1 minute, 3 minutes, 5 minutes, 10 minutes, and 30 minutes, respectively. The mixture was then analyzed by HPLC to calculate the hydrolysis rate from the amount ratio of the unchanged product to 3-carboxy-PROXYL which is a hydrolysate thereof.
(§3) HPLC was performed using a UV-VIS detector (UV-8020), a dual pump (CCPS), a column (ODS-80Ts), and a TSK precolumn (BSA-ODS) all manufactured by Tosoh Corp.
(§4) Mobile phase: 20 mM phosphate buffer solution (pH 2.2)/methanol=60/40

[2] = test system: esterase (carboxy esterase, carboxylic ester hydrolase; EC 3.1.1.1); experiment: in vitro; type: in vitro ADME
Description: as §1, §2, §3, §4

mouse brain = type: in vivo; conditions: 2.5 μmol, vena caudalis
Description: . An L band ESR-CT image of the head axial transverse section was measured under the following conditions.
Measuring device: Electron spin resonance spectrometry
"JES-RE31" (manufactured by JEOL Ltd.)
Magnetic field gradient: 0.45 mT/cm
Projection: 18 (every 10°)
Magnetic field modulation: 100 kHz
Time constant: 0.003 second
Measurement temperature: room temperature

Molecule: CC(=O)OCOC(=O)C1CC(C)(C)N([O])C1(C)C (centres unmarked) [3-carboxy-PROXYL acetoxymethyl ester, acetoxymethyl-2,2,5,5-tetramethylpyrrolidinyloxy-3-carboxylate]
- Kp at 10 min (in vivo): 3.14
- Kp at 0.5 h (in vivo): 2.88
- Blood (% dose) ([1]; 3 min.): 6.28 % dose
- Brain (% dose) ([1]; 3 min.): 2.26 % dose
- Blood (% dose) ([1]; 10 min.): 4.41 % dose
- Brain (% dose) ([1]; 10 min.): 2.77 % dose
- Blood (% dose) ([1]; 30 min.): 4.21 % dose
- Brain (% dose) ([1]; 30 min.): 1.98 % dose
- metabolised at 10 s (in vitro): 30.1%
- metabolised at 1 min (in vitro): 70.8%
- metabolised at 0.05 h (in vitro): 93.9%
- metabolised at 5 min (in vitro): 96.7%
- metabolised at 10 min (in vitro): 100%
- metabolised at 0.5 h (in vitro): 100%
- Speed of hydrolysis by esterase compared with methyl ester, in words [2]: hydrolyzed by an esterase in a shorter period of time than 3-carboxy-PROXYL methyl ester
- Hydrolysis by esterase, in words ([2]; after 10 seconds): slightly hydrolyzed
- L band ESR-CT: concentration inside the brain (mouse brain): still more highly concentrated inside the brain
- L band ESR-CT: concentration outside the brain (mouse brain): decreased accumulation outside the brain

Molecule: COC(=O)C1CC(C)(C)N([O])C1(C)C (centres unmarked) [3-carboxy-PROXYL methyl ester]
- Kp at 10 min (in vivo): 0.84 to 1.78
- Blood (% dose) ([1]; 3 min.): 4.62 % dose
- Brain (% dose) ([1]; 3 min.): 1.31 % dose
- Blood (% dose) ([1]; 10 min.): 2.68 % dose
- Brain (% dose) ([1]; 10 min.): 0.67 % dose
- Blood (% dose) ([1]; 30 min.): 2.18 % dose
- Brain (% dose) ([1]; 30 min.): 0.21 % dose
- metabolised at 10 s (in vitro): 0.05%
- metabolised at 1 min (in vitro): 0.4%
- metabolised at 0.05 h (in vitro): 0.8%
- metabolised at 5 min (in vitro): 1.35%
- metabolised at 10 min (in vitro): 2.54%
- metabolised at 0.5 h (in vitro): 8.25%
- L band ESR-CT: concentration inside the brain (mouse brain): highly concentrated inside the brain
- L band ESR-CT: concentration outside the brain (mouse brain): concentrated outside the brain

Molecule: CCOC(=O)C1CC(C)(C)N([O])C1(C)C (centres unmarked) [3-carboxy-PROXYL ethyl ester]
- Kp at 10 min (in vivo): 0.84 to 1.78
- Blood (% dose) ([1]; 3 min.): 3.46 % dose
- Brain (% dose) ([1]; 3 min.): 0.79 % dose
- Blood (% dose) ([1]; 10 min.): 2.92 % dose
- Brain (% dose) ([1]; 10 min.): 0.74 % dose
- Blood (% dose) ([1]; 30 min.): 3.38 % dose
- Brain (% dose) ([1]; 30 min.): 0.12 % dose

- brain to blood ratio (ratio of % dose/g of the brain to % dose/g of the blood) ([1]; after 10 minutes): 0.84-1.78
Molecule: 2-ethyl-2,5,5-trimethyloxazolidinyloxy
- Blood (% dose) ([1]; 3 min.): 4.52 % dose
- Brain (% dose) ([1]; 3 min.): 1.63 % dose
- Blood (% dose) ([1]; 10 min.): 3.69 % dose
- Brain (% dose) ([1]; 10 min.): 1.64 % dose
- Blood (% dose) ([1]; 30 min.): 0.81 % dose
- Brain (% dose) ([1]; 30 min.): 0.52 % dose

— patent US6239145A, “Nitroxyl compounds and drugs and reagents containing the same as the active ingredient” (Daiitchi Radioisotope Laboratories, Ltd., priority 1997, dated 2001)
